Data taken from paper PMC9431032, “Boosting Cosmeceutical Peptides: Coupling Imidazolium-Based Ionic Liquids to Pentapeptide-4 Originates New Leads with Antimicrobial and Collagenesis-Inducing Activities” (Microbiology Spectrum, 2022).
≈ marks a conversion by molar mass, not a printed value. Where “and” joins values, the source holds several entries; their conditions need not be identical. Equal values may be shown once. Read-outs that look alike come from different tables or passages of the source. Peptide text beside a SMILES is read from it. * marks the point of attachment. X2 = Cn1cc[n+](Cc2cn(CC(=O)*)nn2)c1; Palmitoyl = CCCCCCCCCCCCCCCC(=O)*

Assays:
E. coli ATCC 25922 = test: microbe, parasite or virus in culture
Procedure: (§1) The antimicrobial activity of the IL-KTTKS conjugates was assessed in vitro against reference bacterial strains (American Type Culture Collection, ATCC). The minimal inhibitory concentration (MIC) was determined according to the Clinical and Laboratory Standards Institute (CLSI) guidelines ([28]) against Gram-positive (S. aureus, Enterococcus faecalis) and Gram-negative (Escherichia coli, Pseudomonas aeruginosa) bacteria.
(§2) (i) Antibacterial activity in standard conditions. The test conjugates and reference compounds were evaluated for their activity against three reference strains of Gram-negative bacteria, namely, E. coli (ATCC 25922), Pseudomonas aeruginosa (ATCC 27853), and Klebsiella pneumoniae (ATCC 13883), and the four following reference strains of Gram-positive bacteria, Staphylococcus aureus (ATCC 29213), S. Epidermidis (ATCC 14990), E. faecalis (ATCC 29212), and Streptococcus pyogenes (ATCC 19615). […] MBC values were also determined as previously reported ([52]).

E. faecalis ATCC 29212 = test: microbe, parasite or virus in culture
Procedure: as §1, §2

P. aeruginosa ATCC 27853 = test: microbe, parasite or virus in culture
Procedure: as §1, §2

S. aureus ATCC 29213 = test: microbe, parasite or virus in culture
Procedure: as §1, §2

[1] = system: HaCaT cells (human immortalized keratinocytes); test: cells; format: cell-based
Procedure: (§3) The cytotoxicity of KTTK(C16Im)S and C16Im-KTTKS conjugates was assessed on human foreskin fibroblasts (HFF-1) and human immortalized keratinocytes (HaCaT). […] In turn, the parent IL [C16 M1Im][Br] and its […] equimolar mixture with PP4, KTTKS:[C16 M1Im][Br]
(§4) (iv) Toxicity to human cells. HaCat and HFF-1 were seeded at 4 × 10^4cell/mL in 96-well plate using in Dulbecco’s Modified Eagle Medium (DMEM; CLS) supplemented with 2% FBS (Biowest) and 1% of antibiotic/antimycotic solution (100 units/mL of penicillin, 10 mg/mL of streptomycin, and 0.25 mg/mL of amphotericin B, Sigma-Aldrich). The plate was incubated at 37°C in a 5% CO2 atmosphere, and the cells allowed to grow until confluence was reached. Then, solutions of the test compounds in DMEM supplemented with 2% FBS, in a concentration range between 6.3 and 100 μM, were added to the wells. After 24 h of incubation at 37°C in a 5% CO2 atmosphere, the cell viability was assessed through the resazurin reduction assay. Briefly, the medium was removed and then 20 μL of the alamarBlue Cell Viability Reagent (Resazurin sodium salt, Sigma-Aldrich) at 0.15 mg/mL in 100 μL of Hank’s Balanced Salt Solution (HBSS; Sigma-Aldrich) were added to each well; the plate was next incubated for 2 h at 37°C in a 5% CO2 atmosphere, after which fluorescence was read at 560/590 nm on a Flex Station 3 multi-mode microplate reader (Molecular Devices) ([53]). The IC50 values were thus determined using the GraphPad Prism 9.0 software, by applying the equation log(inhibitor) versus response with variable slope (four parameters).

[2] = system: HFF-1 cells (human foreskin fibroblasts); format: cell-based; settings: 24 h
Procedure: as §3, §4

[3] = format: physicochemical
Procedure: as §1
(vi) Quantitation of final peptides and their IL conjugates. Peptide stock solutions were prepared at approximately 10 mg/mL in distilled water except for C16-KTTKS-OH that was solubilized in DMSO. Accurate quantitation of the peptide solutions were quantitated by microvolume spectrophotometry at 205 nm, using a Thermo Scientific NanoDrop One system and quantitation method 31 that assumes an extinction coefficient ε205 of 31 mL·mg^−1·cm^−1 ([50]). […] To this end, the peptide was hydrolyzed using 6 M aqueous hydrochloric acid containing phenol (10% vol/vol), for 24 h at 110°C. The hydrolysate was next evaporated to dryness and the residue dissolved in HPLC-grade water (500 μL) containing α-aminobutyric acid as internal standard. The mixture thus obtained was then derivatized by the AccQ-Tag protocol from Waters using 6-aminoquinoyl-N-hydroxysuccinimidyl carbamate ([51]), and the resulting solution analyzed by HPLC (WATERS 600) with the UV-detector (WATERS 2487) set at 254 nm.

C. albicans ATCC 90028 = test: microbe, parasite or virus in culture; settings: Candida albicans, ATCC90028
Procedure: (§5) The MIC values were determined according to the European Committee on Antimicrobial Susceptibility Testing (EUCAST) protocol ([36]) and are shown on Table 4.
(§6) (iii) Antifungal activity.

C. glabrata ATCC 90030 = test: microbe, parasite or virus in culture; settings: Nakaseomyces glabratus, ATCC90030
Procedure: as §5, §6

[4] = system: C. parapsilosis ATCC 22019; test: microbe, parasite or virus in culture; settings: Lodderomyces parapsilosis, ATCC22019
Procedure: as §5, §6

K. pneumonia ATCC 138830 = test: microbe, parasite or virus in culture; settings: Klebsiella pneumoniae, ATCC138830
Procedure: as §1, §2

[5] = E. coli ATCC 25922, broth microdilution in cation-adjusted MHB2, CLSI, n = 3
[6] = E. faecalis ATCC 29212, broth microdilution in cation-adjusted MHB2, CLSI, n = 3
[7] = P. aeruginosa ATCC 27853, broth microdilution in cation-adjusted MHB2, CLSI, n = 3
[8] = S. aureus ATCC 29213, broth microdilution in cation-adjusted MHB2, CLSI, n = 3
[9] = Enterococcus faecalis, ATCC29212
[10] = Staphylococcus aureus, ATCC29213

C[C@@H](O)[C@H](NC(=O)[C@@H](NC(=O)[C@@H](N)CCCCn1cc(C[n+]2ccn(C)c2)nn1)[C@@H](C)O)C(=O)N[C@@H](CCCCN)C(=O)N[C@@H](CO)C(N)=O [K(MeIm)TTKS]
MIC (E. coli ATCC 25922; [5]): > 1030.1 μM and > 731.2 μg/mL
MIC (E. faecalis ATCC 29212; [6]): > 1030.1 μM and > 731.2 μg/mL
MIC (P. aeruginosa ATCC 27853; [7]): > 1030.1 μM and > 731.2 μg/mL
MIC (S. aureus ATCC 29213; [8]): > 1030.1 μM and > 731.2 μg/mL

C[C@@H](O)[C@H](NC(=O)[C@@H](NC(=O)[C@@H](N)CCCCN)[C@@H](C)O)C(=O)N[C@@H](CCCCn1cc(C[n+]2ccn(C)c2)nn1)C(=O)N[C@@H](CO)C(N)=O [KTTK(MeIm)S]
MIC (E. coli ATCC 25922; [5]): > 954.2 μM and > 677.3 μg/mL
MIC (E. faecalis ATCC 29212; [6]): > 954.2 μM and > 677.3 μg/mL
MIC (P. aeruginosa ATCC 27853; [7]): > 954.2 μM and > 677.3 μg/mL
MIC (S. aureus ATCC 29213; [8]): > 954.2 μM and > 677.3 μg/mL

CCCCCCCCCCCCCCCC(=O)N[C@@H](CCCCN)C(=O)N[C@H](C(=O)N[C@H](C(=O)N[C@@H](CCCCN)C(=O)N[C@@H](CO)C(=O)O)[C@@H](C)O)[C@@H](C)O [Peptide C16-KTTKS-OH] (Palmitoyl-KTTKS-OH)
IC50 ([1]; 24 h): > 100 µM
IC50 [2]: 79.7 ± 2.82 µM
Behaviour when diluted in cation-adjusted Mueller-Hinton broth (MHB2) [3]: precipitated
Solubility in water [3]: poor solubility in water
Solvent in which the peptide was soluble [3]: dimethyl sulfoxide (DMSO)

C[C@@H](O)[C@H](NC(=O)[C@H](CCCCN)NC(=O)Cn1cc(C[n+]2ccn(C)c2)nn1)C(=O)N[C@H](C(=O)N[C@@H](CCCCN)C(=O)N[C@@H](CO)C(N)=O)[C@@H](C)O [MeIm-KTTKS] (X2-KTTKS-NH2)
MIC (E. coli ATCC 25922; [5]): > 825.9 μM and > 633.4 μg/mL
MIC (E. faecalis ATCC 29212; [6]): > 825.9 μM and > 633.4 μg/mL
MIC (P. aeruginosa ATCC 27853; [7]): > 825.9 μM and > 633.4 μg/mL
MIC (S. aureus ATCC 29213; [8]): > 825.9 μM and > 633.4 μg/mL

OC(Cn1cncn1)(Cn1cncn1)c1ccc(F)cc1F [Fluconazole, reference compound]
MIC (C. albicans ATCC 90028): 1.6 µM (≈ 0.49 µg/mL)
MIC (C. glabrata ATCC 90030): 26 µM (≈ 7.96 µg/mL)
MIC [4]: 6.5 µM (≈ 1.99 µg/mL)

CCCCCCCCCCCCCCCCn1cc[n+](C)c1 [[C16 M1Im][Br], 1-hexadecyl-3-methylimidazolium bromide, reference compound]
MIC (E. coli ATCC 25922; Escherichia coli, ATCC25922): 60 µM
MBC (E. faecalis ATCC 29212; [9]): 15 µM
MIC (E. faecalis ATCC 29212; [9]): 0.94 µM
MIC (K. pneumonia ATCC 138830): 60 µM
MIC (P. aeruginosa ATCC 27853; Pseudomonas aeruginosa, ATCC27853): > 240 µM
MBC (S. aureus ATCC 29213; [10]): 30 µM
MIC (S. aureus ATCC 29213; [10]): 0.94 µM
MIC (C. albicans ATCC 90028): 0.93 µM
MIC (C. glabrata ATCC 90030): 0.93 µM
MIC [4]: 0.93 µM
IC50 ([1]; Homo sapiens, HaCaT, 24 h incubation, 6.3-100 μM, resazurin, mean ± SEM of 2 independent experiments (n = 8), read-out: IC50 ± SEM): 6.27 ± 1.02 µM

C[C@@H](O)[C@H](NC(=O)[C@@H](NC(=O)[C@@H](N)CCCCn1cc(C[n+]2ccn(C)c2)nn1)[C@@H](C)O)C(=O)N[C@@H](CCCCn1cc(C[n+]2ccn(C)c2)nn1)C(=O)N[C@@H](CO)C(N)=O [K(MeIm)TTK(MeIm)S]
MIC (E. coli ATCC 25922; [5]): > 1245.5 μM and > 1067.4 μg/mL
MIC (E. faecalis ATCC 29212; [6]): > 1245.5 μM and > 1067.4 μg/mL
MIC (P. aeruginosa ATCC 27853; [7]): > 1245.5 μM and > 1067.4 μg/mL
MIC (S. aureus ATCC 29213; [8]): > 1245.5 μM and > 1067.4 μg/mL

CCCCCCCCCCCCCCn1cc[n+](Cc2cn(CCCC[C@H](NC(=O)[C@@H](NC(=O)[C@@H](NC(=O)[C@@H](N)CCCCN)[C@@H](C)O)[C@@H](C)O)C(=O)N[C@@H](CO)C(N)=O)nn2)c1 [KTTK(C14Im)S]
MIC (E. coli ATCC 25922; [5]): 29.5 μM and 26.3 μg/mL
MIC (E. faecalis ATCC 29212; [6]): 58.9 μM and 52.6 μg/mL
MIC (P. aeruginosa ATCC 27853; [7]): 58.9 μM and 52.6 μg/mL
MIC (S. aureus ATCC 29213; [8]): 29.5 μM and 26.3 μg/mL

C16-KTTKS-NH2 [C-terminal carboxamide analogue of Matrixyl]
Behaviour when diluted in cation-adjusted Mueller-Hinton broth (MHB2) [3]: precipitated
Solvent in which the peptide was soluble [3]: water
